The results in this text go back to ChEMBL document CHEMBL2034890, “Polyhydroxylated macrolides from Seimatosporium discosioides and their effects on the activation of peroxisome proliferator-activated receptor gamma” (J Nat Prod, 2012).

Active and inactive are the calls of the source. No cut-off for these calls is given here.

Common to all, as to assay type: functional, cell-based
Test [1] has as its target T1, Peroxisome proliferator-activated receptor gamma (Homo sapiens) (UniProt P37231).
T1 sequence (whole entry): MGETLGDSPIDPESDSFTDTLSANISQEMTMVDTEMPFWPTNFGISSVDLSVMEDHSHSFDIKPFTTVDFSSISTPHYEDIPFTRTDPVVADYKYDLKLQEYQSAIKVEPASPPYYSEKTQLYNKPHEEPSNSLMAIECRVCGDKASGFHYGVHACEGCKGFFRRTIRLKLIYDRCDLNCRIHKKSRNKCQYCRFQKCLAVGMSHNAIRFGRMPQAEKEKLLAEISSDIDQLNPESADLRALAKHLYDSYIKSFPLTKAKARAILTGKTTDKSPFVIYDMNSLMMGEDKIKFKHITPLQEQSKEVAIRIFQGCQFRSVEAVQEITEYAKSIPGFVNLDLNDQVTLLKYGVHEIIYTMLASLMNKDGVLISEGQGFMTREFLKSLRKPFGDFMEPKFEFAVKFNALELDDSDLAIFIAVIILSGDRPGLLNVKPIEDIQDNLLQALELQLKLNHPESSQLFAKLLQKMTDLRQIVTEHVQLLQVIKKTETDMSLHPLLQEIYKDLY
The test is described as follows: (§1) Agonist activity at human recombinant PPARgamma expressed in CHO cells cotransfected with pGL3-PPRE3-TK-luc reporter assessed as beta-galactosidase activity at after 24 hrs by luciferase based transactivation assay.

Test [2] concerns the target T2, Peroxisome proliferator-activated receptor delta (Homo sapiens) (UniProt Q03181).
T2 sequence (whole entry): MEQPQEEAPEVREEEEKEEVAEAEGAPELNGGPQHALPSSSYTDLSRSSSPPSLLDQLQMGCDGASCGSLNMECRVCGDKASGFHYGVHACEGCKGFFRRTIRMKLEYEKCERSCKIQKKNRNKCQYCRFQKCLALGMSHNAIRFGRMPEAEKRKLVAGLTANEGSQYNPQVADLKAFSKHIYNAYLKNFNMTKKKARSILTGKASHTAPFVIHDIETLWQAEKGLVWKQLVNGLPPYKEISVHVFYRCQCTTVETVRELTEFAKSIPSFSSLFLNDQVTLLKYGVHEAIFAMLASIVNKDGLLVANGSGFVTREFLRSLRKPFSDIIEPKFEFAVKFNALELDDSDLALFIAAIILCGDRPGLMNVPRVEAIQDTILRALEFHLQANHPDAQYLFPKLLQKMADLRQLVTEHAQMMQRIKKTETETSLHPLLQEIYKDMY
The test is described as follows: Agonist activity at human recombinant PPARbeta expressed in CHO cells cotransfected with pGL3-PPRE3-TK-luc reporter assessed as beta-galactosidase activity at 20 uM after 24 hrs by luciferase based transactivation assay.

In test [3] the target is T3, Peroxisome proliferator-activated receptor alpha (Homo sapiens) (UniProt Q07869).
T3 sequence (whole entry): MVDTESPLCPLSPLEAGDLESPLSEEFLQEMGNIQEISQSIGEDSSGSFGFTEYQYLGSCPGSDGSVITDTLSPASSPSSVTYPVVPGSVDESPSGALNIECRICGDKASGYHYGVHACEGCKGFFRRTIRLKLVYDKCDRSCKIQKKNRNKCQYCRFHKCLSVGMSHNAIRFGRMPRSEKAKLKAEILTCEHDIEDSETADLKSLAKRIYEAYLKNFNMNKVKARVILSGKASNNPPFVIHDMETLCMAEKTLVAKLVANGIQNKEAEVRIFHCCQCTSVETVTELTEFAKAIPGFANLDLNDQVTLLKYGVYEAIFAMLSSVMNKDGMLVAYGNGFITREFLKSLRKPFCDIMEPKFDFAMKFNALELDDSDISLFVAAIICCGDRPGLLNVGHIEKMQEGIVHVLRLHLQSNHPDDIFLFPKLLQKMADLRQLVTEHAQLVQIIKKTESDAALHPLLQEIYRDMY
The test is described as follows: Agonist activity at human recombinant PPARalpha expressed in CHO cells cotransfected with pGL3-PPRE3-TK-luc reporter assessed as beta-galactosidase activity at 20 uM after 24 hrs by luciferase based transactivation assay.

The target in test [4] is T1, Peroxisome proliferator-activated receptor gamma (Homo sapiens). The test is described as follows: Agonist activity at PPARgamma in human HepG2 cells assessed as up-regulation of PPARgamma mRNA expression by RT-PCR analysis.
The target is the same in test [5]. The test is described as follows: Agonist activity at PPARgamma in human HepG2 cells assessed as downregulation of phosphoenolpyruvate carboxykinase mRNA at 0.5 to 12.5 uM by RT-PCR analysis.
For test [6] the target is unchanged. The test is described as follows: Agonist activity at PPARgamma in human HepG2 cells assessed as up-regulation of PPARgamma mRNA at 0.5 to 12.5 uM by RT-PCR analysis relative to control.
Test [7] has as its target T4, Peroxisome proliferator-activated receptor gamma (Homo sapiens, UniProt P37231).
T4 sequence (P37231 whole entry): T1 sequence (whole entry)
Described as §1.

Test [8] deals with T1, Peroxisome proliferator-activated receptor gamma (Homo sapiens). The test is described as follows: Agonist activity at PPARgamma in human HepG2 cells assessed as change in stearoyl CoA desaturase 1 mRNA at 0.5 to 12.5 uM by RT-PCR analysis.
The target is the same in test [9]. The test is described as follows: Agonist activity at PPARgamma in human HepG2 cells assessed as downregulation of glucose-6-phosphatase mRNA at 0.5 to 12.5 uM by RT-PCR analysis.

In the case of `COc1cc(O)c2c(c1)C(=O)c1cocc1C2=O`, the result in test [1], in test [2] and in test [3] was inactive.

For the compound `COc1cc(O)c2c(c1)[C@@H](O)[C@@]1(O)COC[C@H]1C2=O`, the result in [1], in test [2] and in [3] was inactive.

On to `COc1cc(O)c2c(c1)[C@@H](O)[C@@]13CO[C@@H](O)[C@@]1(O3)C2=O`, for which the outcome in [1], in test [2] and in test [3] was inactive.

By EC50 is commonly meant the concentration giving half of the maximal effect. `CCCCCCCCC[C@H]1C[C@@H](O)[C@H](O)/C=C/[C@H](O)CC(=O)O1` [SEIMATOPOLIDE A]: the Activity result in test [4] is “Dose-dependent effect”. Further, the outcome in test [5] and in test [9] was Active. In test [6], the fold change (FC) came to 2. For the same compound, the EC50 in [7] is 1.15 µM. Besides, the result in test [2], in test [8] and in test [3] was inactive.

For `CCCCCCCCC[C@H]1CC[C@H](O)/C=C/[C@H](O)CC(=O)O1` [SEIMATOPOLIDE B], in test [7], the EC50 was 11.1 µM. The result in test [2] and in test [3] was inactive.
